According to ChEMBL document CHEMBL5604062, “ASAP - ZIKV NS2B-NS3 protease fluorescence dose response” (2024):
“And” between values parts separate entries of the source, which are not always exact repeats. Identical values can stand only once.

Target: Nonstructural protein 3 (Zika virus, UniProt A0A024AXB9)
Assay: Functional biochemical assay to identify treatments for viral infectious disease that targets Zika NS2B-NS3 protease. Utilizing a direct enzyme activity measurement method, reading the fluorescence intensity is used to characterize the relative potency of inhibitors as IC50.
Set-up: species or system PRVABC59

Nonstructural protein 3, sequence (A0A024AXB9 whole entry): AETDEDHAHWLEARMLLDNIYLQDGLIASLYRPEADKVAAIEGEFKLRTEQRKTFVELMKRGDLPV

Row | SMILES | IC50
1 | CCOCCNC(=O)c1cc(Cl)ccc1NS(=O)(=O)c1ccc(Oc2ccccc2Cl)cc1 | 90.4 µM and > 99.5 µM
2 | NCc1cccc(NC(=O)[C@@H](NC(=O)OCc2ccccc2)c2ccc(-c3ccc4cn[nH]c4c3)cc2)c1 | 6.07 µM and 5.74 µM
3 | CN1CCC(c2nc(C(F)(F)F)n3c2CN(c2cccc(C(N)=O)n2)CC3)CC1 | > 99.5 µM
4 | CCn1c(=O)c(N2C[C@H]3COC(C)(C)OC[C@H]3C2)nc2ccccc21 | > 99.5 µM
5 | CN1CCc2ncc(NC(=O)[C@@H](NC(=O)OCc3ccccc3)c3ccc(OCc4ccccc4)cc3)cc2C1 | > 99.5 µM
6 | CCn1c(=O)c(N2CC(S(=O)(=O)N3CCCC3)C2)nc2ccccc21 | > 99.5 µM
7 | OCc1ccc(Cl)c(N2CCN(c3ccc4[nH]cnc4c3)CC2)n1 | > 99.5 µM
8 | CCn1c(=O)c(N2C[C@@H]3[C@H](C2)[C@H]3C(=O)OC)nc2ccccc21 | > 99.5 µM
9 | CC(C)c1cnc(COc2ccc(S(=O)(=O)Nc3ccc(Cl)cc3C(=O)O)cc2)o1 | > 99.5 µM
10 | O=C(c1cc(Cl)ccc1NS(=O)(=O)c1ccc(Oc2ccccc2Cl)cc1)N1CCNCC1 | > 99.5 µM
11 | O=C(N[C@@H](C(=O)NCc1ccc(CN2CCCC2)cc1)c1ccc(OCc2ccccc2)cc1)OCc1ccccc1 | > 99.5 µM
12 | O=C(N[C@@H](C(=O)NCc1ccncc1)c1ccc(OCc2ccccc2)cc1)OCc1ccccc1 | > 99.5 µM
13 | CCn1c(=O)c(N2CC[C@@H](Cc3ccncc3)C2)nc2ccccc21 | > 99.5 µM
14 | CN(C)Cc1ccc(CNC(=O)[C@@H](NC(=O)OCc2ccccc2)c2ccc(OCc3ccccc3)cc2)cc1 | > 99.5 µM
15 | O=C(N[C@@H](C(=O)NCc1cccc(CN2CCCCC2)c1)c1ccc(OCc2ccccc2)cc1)OCc1ccccc1 | > 99.5 µM
16 | NS(=O)(=O)c1cc(F)c(Cl)cc1N1CCN(c2ccnc(O)c2)CC1 | > 99.5 µM
17 | CCn1c(=O)c(N2CC[C@@]23CCN(C)C3)nc2ccccc21 | > 99.5 µM
18 | CCn1c(=O)c(N2CC3(CCCCC3)C[C@H]2CO)nc2ccccc21 | > 99.5 µM
19 | CN(C)Cc1cc(CNC(=O)[C@@H](NC(=O)OCc2ccccc2)c2ccc(OCc3ccccc3)cc2)ccc1F | > 99.5 µM
20 | CCn1c(=O)c(N2C[C@H]3CN(C)CC[C@H]3C2)nc2ccccc21 | > 99.5 µM
21 | CCn1c(=O)c(N2CC[C@]3(CCCN(C)C3)C2)nc2ccccc21 | > 99.5 µM

Row | SMILES | IC50
22 | O=C(O)c1ncc(F)cc1NS(=O)(=O)c1ccc(Oc2ccccc2Cl)cc1 | > 99.5 µM
23 | CCn1c(=O)c(N2C[C@H]3OCCN(C(C)=O)[C@H]3C2)nc2ccccc21 | > 99.5 µM
24 | CN(C)C(=O)[C@@H](NC(=O)OCc1ccccc1)c1ccc(OCc2ccccc2)cc1 | > 99.5 µM
25 | C[C@@H]1c2cccnc2CCN1Cc1cccc(CN(C)C)c1 | > 99.5 µM
26 | O=C(N[C@@H](C(=O)Nc1cccnc1)c1ccc(OCc2ccccc2)cc1)OCc1ccccc1 | > 99.5 µM
27 | CCn1cc(-c2ccc(S(C)(=O)=O)cc2)nc(N2CC[C@@H](CO)C2)c1=O | > 99.5 µM
28 | CCn1c(=O)c(N2CC[C@@]3(CCCN3C)C2)nc2ccccc21 | > 99.5 µM
29 | CNc1nc2cc(-c3ccc4c(c3)C[C@H](N)C4)ccc2o1 | > 99.5 µM
30 | CN(C)[C@H]1CCc2cc(-c3cccc(N4CCNC4=O)c3)ccc2NC1 | > 99.5 µM
31 | CC(C)(CO)NC(=O)[C@@H](NC(=O)OCc1ccccc1)c1ccc(OCc2ccccc2)cc1 | > 99.5 µM
32 | Cn1cc(-c2ccc([C@@H](NC(=O)OCc3ccccc3)C(=O)Nc3cccc(CN)c3)cc2)ccc1=O | > 99.5 µM
33 | CCn1c(=O)c(N2C[C@H]3CCCN3C(=O)[C@H]2C)nc2ccccc21 | > 99.5 µM
34 | CCn1c(=O)c(N2CCC[C@H]2CN2CCCC2)nc2ccccc21 | > 99.5 µM
35 | O=C(N[C@@H](C(=O)Nc1ccccn1)c1ccc(OCc2ccccc2)cc1)OCc1ccccc1 | > 99.5 µM
36 | O=C(N[C@@H](C(=O)NCc1ccccn1)c1ccc(OCc2ccccc2)cc1)OCc1ccccc1 | > 99.5 µM
37 | CN1CCN(Cc2cccc(CNC(=O)[C@@H](NC(=O)OCc3ccccc3)c3ccc(OCc4ccccc4)cc3)c2)CC1 | > 99.5 µM
38 | CCn1c(=O)c(N2CC[C@H](N3CCN(C)CC3)C2)nc2ccccc21 | > 99.5 µM
39 | CCn1c(=O)c(N2CCC[C@H]2c2ncccn2)nc2ccccc21 | > 99.5 µM
40 | Cn1nc(C2CCN(C(=O)c3ccccc3CSc3nnc[nH]3)CC2)cc1O | > 99.5 µM
41 | NCc1cccc(NC(=O)[C@@H](NC(=O)OCc2ccccc2)c2ccc(-c3cccc(F)c3)cc2)c1 | 7.19 µM and 6.8 µM

The remaining lines, values ahead:

Row | IC50 | SMILES
42 | > 99.5 µM | O=C(N[C@H](C(=O)NCc1cccc(CC(F)(F)F)c1)c1ccc(OCc2ccccc2)cc1)OCc1ccccc1
43 | > 99.5 µM | CCn1c(=O)c(N2CCCC[C@H](N3CCCC3)C2)nc2ccccc21
44 | 48.7 µM | Cc1ccc([C@@H](NC(=O)OCc2ccccc2)C(=O)Nc2cccc(CN)c2)cc1C(F)(F)F
45 | > 99.5 µM | CCn1c(=O)c(N2C[C@@H](CO)[C@H](c3cncn3C)C2)nc2ccccc21
46 | > 99.5 µM | NC(=O)c1cccnc1N1CCCN(c2nc(-c3cc(Cl)cc(Cl)c3)no2)CC1
47 | 34.1 µM | O=c1[nH]ncn1C1CCN(Cc2c[nH]c3ccccc23)CC1
48 | > 99.5 µM | CCn1c(=O)c(N2CC[C@H](N3CCCS3(=O)=O)C2)nc2ccccc21
49 | 12 µM | N#Cc1ccccc1-c1ccc([C@H](NC(=O)OCc2ccccc2)C(=O)Nc2cccc(CN)c2)cc1
50 | > 99.5 µM | CCNC(=O)[C@@H](NC(=O)OCc1ccccc1)c1ccc(OCc2ccccc2)cc1
51 | > 99.5 µM | CCn1c(=O)c(N2C[C@H]3C[C@@H](O)CC[C@H]3C2)nc2ccccc21
52 | > 99.5 µM | CS(=O)(=O)NCc1ccc(CNC(=O)[C@@H](NC(=O)OCc2ccccc2)c2ccc(OCc3ccccc3)cc2)cc1
53 | > 99.5 µM | O=Cc1ccc(F)c(C(=O)N2CCN(C3=NCCCN3)CC2)c1
54 | > 99.5 µM | CCn1cnnc1COc1ccc(S(=O)(=O)Nc2ccc(Cl)cc2C(=O)O)cc1
55 | 12.3 µM | NCc1cccc(NC(=O)[C@@H](NC(=O)OCc2ccccc2)c2ccc(-c3ccc4scnc4c3)cc2)c1
56 | > 99.5 µM | CC(C)n1cc(CNC(=O)[C@@H](NC(=O)OCc2ccccc2)c2ccc(OCc3ccccc3)cc2)cn1
57 | 72.4 µM | CN1Cc2ccc(CNC(=O)[C@@H](NC(=O)OCc3ccccc3)c3ccc(OCc4ccccc4)cc3)cc2C1
58 | > 99.5 µM | CC[C@H]1CN2CCC[C@H]2CN1c1nc2ccccc2n(CC)c1=O
59 | > 99.5 µM | CCn1c(=O)c(N2C[C@@H]3CN(C4CCC4)C[C@@H]3C2)nc2ccccc21
60 | > 99.5 µM | CCn1c(=O)c(N2CC3(CCC3)C[C@@H]2C)nc2ccccc21
61 | > 99.5 µM | O=C(O)c1cc(Cl)ccc1CNS(=O)(=O)c1ccc(Oc2ccccc2Cl)cc1
62 | > 99.5 µM | CCn1c(=O)c(N2C[C@@H]3CS(=O)(=O)C[C@@H]3C2)nc2ccccc21
63 | > 99.5 µM | COc1cncc(CNC(=O)[C@@H](NC(=O)OCc2ccccc2)c2ccc(OCc3ccccc3)cc2)c1
64 | > 99.5 µM | CCn1c(=O)c(N2CC[C@@H](CN3CCCCC3)C2)nc2ccccc21
65 | > 99.5 µM | O=C(N[C@@H](C(=O)Nc1ccncc1)c1ccc(OCc2ccccc2)cc1)OCc1ccccc1
66 | > 99.5 µM | O=C(O)c1cc(Cl)ccc1NS(=O)(=O)c1ccc(OCc2ccccn2)cc1
67 | > 99.5 µM | O=C(O)Cn1ccnc(N2CC[C@@H](CO)C2)c1=O
68 | > 99.5 µM | CN1CCc2ccc(C(=O)N3CCNc4ccccc4C3)cc2C1
69 | > 99.5 µM | NS(=O)(=O)c1ccc(N2CCC=C(c3cccc(O)c3)C2)c2ncccc12

Row | IC50 | SMILES
70 | > 99.5 µM | CCn1c(=O)c(N2C[C@@H]3CCO[C@]3(COC)C2)nc2ccccc21
71 | > 99.5 µM | CCn1c(=O)c(N2CCC[C@H]2c2noc(C)n2)nc2ccccc21
72 | > 99.5 µM | CN(C)Cc1ccccc1CNC(=O)[C@@H](NC(=O)OCc1ccccc1)c1ccc(OCc2ccccc2)cc1
73 | > 99.5 µM | CN(C)Cc1cncc(NC(=O)[C@@H](NC(=O)OCc2ccccc2)c2ccc(OCc3ccccc3)cc2)c1
74 | > 99.5 µM | Cc1nc(-c2ccc([C@@H](NC(=O)OCc3ccccc3)C(=O)Nc3cccc(CN)c3)cc2)cs1
75 | > 99.5 µM | O=C(N[C@H](C(=O)NCc1ccc(F)cc1)c1ccc(OCc2ccccc2)cc1)OCc1ccccc1
76 | > 99.5 µM | CCn1c(=O)c(N2CC[C@@]3(COC(=O)N3)C2)nc2ccccc21
77 | > 99.5 µM | CN1CCN(Cc2ccccc2CNC(=O)[C@@H](NC(=O)OCc2ccccc2)c2ccc(OCc3ccccc3)cc2)CC1
78 | 68.7 µM | NCc1cccc(NC(=O)[C@@H](NC(=O)OCc2ccccc2)c2ccc(C3=CCCOC3)cc2)c1
79 | > 99.5 µM | CN1CC[C@H](C2CCN(S(=O)(=O)c3cc(F)cc(C(=O)O)c3)CC2)C1
80 | > 99.5 µM | CN(C)CCOc1cccc(CNC(=O)[C@@H](NC(=O)OCc2ccccc2)c2ccc(OCc3ccccc3)cc2)c1
81 | > 99.5 µM | CCn1cc(C(=O)O)nc(N2CC[C@@H](CO)C2)c1=O
82 | > 99.5 µM | Cc1cnn(-c2cccc(-c3cccc(C4(CN)CC4)c3)c2)c1
83 | 98.1 µM | Cc1ncccc1-c1ccc([C@@H](NC(=O)OCc2ccccc2)C(=O)Nc2cccc(CN)c2)cc1
84 | > 99.5 µM | O=C(N[C@@H](C(=O)Nc1ccc2c(n1)CNC2)c1ccc(OCc2ccccc2)cc1)OCc1ccccc1
85 | > 99.5 µM | O=C(N[C@@H](C(=O)NCc1cccnc1)c1ccc(OCc2ccccc2)cc1)OCc1ccccc1
86 | > 99.5 µM | CS(=O)(=O)c1cccc(CNC(=O)[C@@H](NC(=O)OCc2ccccc2)c2ccc(OCc3ccccc3)cc2)c1
87 | > 99.5 µM | O=C(O)c1cc(Cl)ccc1NS(=O)(=O)c1ccc(OCc2cccnn2)cc1
88 | > 99.5 µM | CCn1c(=O)c(N2CCC[C@H]2c2cncc(Br)c2)nc2ccccc21
89 | > 99.5 µM | O=C(N[C@@H](C(=O)NCc1c[nH]cn1)c1ccc(OCc2ccccc2)cc1)OCc1ccccc1
90 | > 99.5 µM | O=C(N[C@@H](C(=O)NC1CCCCC1)c1ccc(OCc2ccccc2)cc1)OCc1ccccc1
91 | > 99.5 µM | CCn1c(=O)c(N2CC[C@H](NC(=O)NC3CC3)C2)nc2ccccc21
92 | > 99.5 µM | Cc1cc(C=O)c(O)c(C(=O)N2CC[C@H](CN(C)C)C2)c1
93 | 36.3 µM | CC(C)(C)c1ncc(-c2ccc([C@@H](NC(=O)OCc3ccccc3)C(=O)Nc3cccc(CN)c3)cc2)o1
94 | 90 µM | NCc1cccc(NC(=O)[C@@H](NC(=O)OCc2ccccc2)c2ccc(OCc3ccncc3)cc2)c1
95 | 30.3 µM | O=C(O)c1cc(Cl)c(F)cc1NS(=O)(=O)c1ccc(Oc2ccccc2)cc1
96 | 14 µM | NCc1cccc(NC(=O)[C@@H](NC(=O)OCc2ccccc2)c2ccc(-c3cccc4c3CCO4)cc2)c1
